Reference: PMC6437697 (Journal of Medicinal Chemistry, 2019)

How the values were obtained:
Test in all cases: KINOMEscan
Format in all cases: binding
Conditions in all cases: read-out: % control activity remaining
CSNK1A1L = target: T1, CSNK1A1L (Homo sapiens, UniProt Q8N752)
T1 construct: purchased Eurofins DiscoverX KINOMEscan
T1 sequence (Q8N752 1-337): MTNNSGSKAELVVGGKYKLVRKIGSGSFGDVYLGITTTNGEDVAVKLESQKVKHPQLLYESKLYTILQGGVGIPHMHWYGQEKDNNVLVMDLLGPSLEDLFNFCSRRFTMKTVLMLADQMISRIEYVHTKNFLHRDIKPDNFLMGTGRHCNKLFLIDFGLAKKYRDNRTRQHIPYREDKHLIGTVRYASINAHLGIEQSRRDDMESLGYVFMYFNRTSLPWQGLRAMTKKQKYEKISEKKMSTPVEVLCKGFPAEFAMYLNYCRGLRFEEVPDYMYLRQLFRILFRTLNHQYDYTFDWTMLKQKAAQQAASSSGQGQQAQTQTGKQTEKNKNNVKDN

EPHA1 = target: T2, EPHA1 (Homo sapiens, UniProt P21709)
T2 construct: purchased Eurofins DiscoverX KINOMEscan
T2 sequence (P21709 26-976): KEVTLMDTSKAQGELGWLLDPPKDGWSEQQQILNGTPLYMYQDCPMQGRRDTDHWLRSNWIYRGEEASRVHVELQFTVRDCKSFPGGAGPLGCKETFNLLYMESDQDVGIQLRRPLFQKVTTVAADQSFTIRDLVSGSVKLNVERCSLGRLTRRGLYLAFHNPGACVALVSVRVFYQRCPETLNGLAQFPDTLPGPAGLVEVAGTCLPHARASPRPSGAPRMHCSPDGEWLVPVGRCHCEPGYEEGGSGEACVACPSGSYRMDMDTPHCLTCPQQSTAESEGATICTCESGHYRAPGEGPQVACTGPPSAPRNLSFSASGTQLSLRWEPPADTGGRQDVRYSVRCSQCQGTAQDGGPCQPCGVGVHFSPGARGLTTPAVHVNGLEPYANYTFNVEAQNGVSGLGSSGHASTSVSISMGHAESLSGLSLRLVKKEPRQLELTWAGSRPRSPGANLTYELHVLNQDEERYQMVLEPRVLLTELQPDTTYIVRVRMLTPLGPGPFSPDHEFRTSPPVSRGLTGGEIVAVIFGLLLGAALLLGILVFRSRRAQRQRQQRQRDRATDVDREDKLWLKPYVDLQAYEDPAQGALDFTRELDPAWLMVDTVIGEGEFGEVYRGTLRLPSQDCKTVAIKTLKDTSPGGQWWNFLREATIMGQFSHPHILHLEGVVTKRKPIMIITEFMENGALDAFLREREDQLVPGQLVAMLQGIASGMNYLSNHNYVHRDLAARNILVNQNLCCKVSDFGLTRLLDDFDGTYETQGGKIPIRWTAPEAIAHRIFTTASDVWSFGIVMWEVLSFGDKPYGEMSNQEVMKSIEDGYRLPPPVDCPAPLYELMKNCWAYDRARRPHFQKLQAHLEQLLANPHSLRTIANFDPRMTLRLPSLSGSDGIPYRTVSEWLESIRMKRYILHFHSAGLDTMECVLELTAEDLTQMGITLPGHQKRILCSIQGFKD

MET = target: T3, MET (Homo sapiens, UniProt P08581)
T3 construct: purchased Eurofins DiscoverX KINOMEscan

PRKG2 = target: T4, PRKG2 (Homo sapiens, UniProt Q13237)
T4 construct: purchased Eurofins DiscoverX KINOMEscan
T4 sequence (Q13237 1-762): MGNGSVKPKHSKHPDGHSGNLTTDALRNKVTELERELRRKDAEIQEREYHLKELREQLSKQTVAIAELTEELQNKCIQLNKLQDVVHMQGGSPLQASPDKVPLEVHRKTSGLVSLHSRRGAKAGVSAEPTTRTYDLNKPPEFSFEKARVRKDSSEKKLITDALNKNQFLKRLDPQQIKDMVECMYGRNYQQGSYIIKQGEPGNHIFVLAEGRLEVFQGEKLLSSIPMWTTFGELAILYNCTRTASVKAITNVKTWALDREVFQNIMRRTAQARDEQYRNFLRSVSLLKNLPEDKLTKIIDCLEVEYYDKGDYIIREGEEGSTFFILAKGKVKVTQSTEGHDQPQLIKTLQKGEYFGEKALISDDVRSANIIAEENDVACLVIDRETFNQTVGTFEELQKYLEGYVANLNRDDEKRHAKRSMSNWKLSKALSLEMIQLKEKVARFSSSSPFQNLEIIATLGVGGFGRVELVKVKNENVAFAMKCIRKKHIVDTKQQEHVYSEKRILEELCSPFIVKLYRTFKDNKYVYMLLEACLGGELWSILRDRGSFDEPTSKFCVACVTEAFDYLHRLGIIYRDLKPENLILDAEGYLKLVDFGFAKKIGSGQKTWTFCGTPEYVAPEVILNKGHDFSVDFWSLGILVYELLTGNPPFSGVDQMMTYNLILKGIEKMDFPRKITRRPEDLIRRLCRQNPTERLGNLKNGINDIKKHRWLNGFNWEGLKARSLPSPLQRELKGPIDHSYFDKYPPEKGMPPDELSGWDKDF

ULK3 = target: T5, ULK3 (Homo sapiens, UniProt Q6PHR2)
T5 construct: purchased Eurofins DiscoverX KINOMEscan
T5 sequence (Q6PHR2 1-472): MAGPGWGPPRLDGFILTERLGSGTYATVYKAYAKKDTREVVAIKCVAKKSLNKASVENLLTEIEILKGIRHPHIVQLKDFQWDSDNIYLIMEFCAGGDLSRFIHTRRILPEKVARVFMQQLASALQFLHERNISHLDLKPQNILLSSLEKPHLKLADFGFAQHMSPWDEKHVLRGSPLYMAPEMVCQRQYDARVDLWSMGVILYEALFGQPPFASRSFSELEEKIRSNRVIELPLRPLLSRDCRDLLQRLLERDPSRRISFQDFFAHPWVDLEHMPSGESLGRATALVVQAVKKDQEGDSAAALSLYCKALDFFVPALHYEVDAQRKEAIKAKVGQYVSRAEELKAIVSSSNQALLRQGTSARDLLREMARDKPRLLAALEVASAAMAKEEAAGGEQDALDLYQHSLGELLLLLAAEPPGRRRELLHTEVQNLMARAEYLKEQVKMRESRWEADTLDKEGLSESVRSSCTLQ

AURKB = target: T6, AURKB (Homo sapiens, UniProt Q96GD4)
T6 construct: purchased Eurofins DiscoverX KINOMEscan
T6 sequence (Q96GD4 whole entry): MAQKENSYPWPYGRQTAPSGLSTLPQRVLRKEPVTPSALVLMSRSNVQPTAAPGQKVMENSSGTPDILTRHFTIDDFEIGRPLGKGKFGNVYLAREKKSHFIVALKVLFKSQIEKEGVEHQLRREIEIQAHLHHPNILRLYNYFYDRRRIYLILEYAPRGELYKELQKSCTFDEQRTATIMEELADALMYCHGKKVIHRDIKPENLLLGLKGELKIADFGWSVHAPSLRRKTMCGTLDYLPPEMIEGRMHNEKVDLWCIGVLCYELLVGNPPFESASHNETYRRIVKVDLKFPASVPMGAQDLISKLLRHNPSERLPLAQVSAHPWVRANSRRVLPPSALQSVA

T3 sequence (P08581 25-1390): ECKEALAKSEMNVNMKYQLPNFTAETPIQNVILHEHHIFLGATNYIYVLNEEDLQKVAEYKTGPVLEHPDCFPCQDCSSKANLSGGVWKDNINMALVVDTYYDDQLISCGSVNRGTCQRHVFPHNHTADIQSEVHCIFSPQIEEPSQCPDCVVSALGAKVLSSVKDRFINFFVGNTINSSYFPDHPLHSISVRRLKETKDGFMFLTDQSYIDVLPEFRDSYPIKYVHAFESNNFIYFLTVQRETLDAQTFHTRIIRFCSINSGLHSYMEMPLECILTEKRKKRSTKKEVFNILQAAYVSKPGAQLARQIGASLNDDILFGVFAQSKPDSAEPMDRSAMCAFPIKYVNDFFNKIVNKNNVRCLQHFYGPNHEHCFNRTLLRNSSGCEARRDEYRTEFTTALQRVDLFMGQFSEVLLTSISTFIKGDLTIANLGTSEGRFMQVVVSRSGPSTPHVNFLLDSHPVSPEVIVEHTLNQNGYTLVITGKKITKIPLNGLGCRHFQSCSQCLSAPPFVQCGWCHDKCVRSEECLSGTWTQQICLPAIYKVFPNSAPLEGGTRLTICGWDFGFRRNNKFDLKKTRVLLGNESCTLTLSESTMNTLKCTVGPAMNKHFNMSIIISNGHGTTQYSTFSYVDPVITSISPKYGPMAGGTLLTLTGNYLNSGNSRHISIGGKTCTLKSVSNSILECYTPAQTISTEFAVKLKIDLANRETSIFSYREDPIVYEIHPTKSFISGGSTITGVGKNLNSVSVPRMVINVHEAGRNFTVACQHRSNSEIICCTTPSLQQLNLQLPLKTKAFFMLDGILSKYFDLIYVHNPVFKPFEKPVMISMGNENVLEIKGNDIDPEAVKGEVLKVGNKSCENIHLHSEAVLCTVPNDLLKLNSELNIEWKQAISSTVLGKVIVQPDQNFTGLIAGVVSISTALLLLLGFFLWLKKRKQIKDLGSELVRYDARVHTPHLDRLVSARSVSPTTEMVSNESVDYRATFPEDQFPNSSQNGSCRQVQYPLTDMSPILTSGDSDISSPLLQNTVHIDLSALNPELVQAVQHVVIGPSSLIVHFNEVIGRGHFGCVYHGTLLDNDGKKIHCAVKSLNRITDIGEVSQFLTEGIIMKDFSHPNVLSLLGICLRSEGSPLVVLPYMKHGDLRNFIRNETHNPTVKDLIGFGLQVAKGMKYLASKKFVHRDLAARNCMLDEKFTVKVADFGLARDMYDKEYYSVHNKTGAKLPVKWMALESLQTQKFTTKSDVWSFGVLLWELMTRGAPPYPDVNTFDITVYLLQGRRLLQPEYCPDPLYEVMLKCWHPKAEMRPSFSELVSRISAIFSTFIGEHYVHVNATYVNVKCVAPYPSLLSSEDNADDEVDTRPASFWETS

SMILES | remaining binding at 1 µM (CSNK1A1L) | remaining binding at 1 µM (EPHA1) | remaining binding at 1 µM (MET) | remaining binding at 1 µM (PRKG2) | remaining binding at 1 µM (ULK3) | remaining binding at 1 µM (AURKB)
Clc1cc(NCC2CC2)c2ncc(-c3ccc4[nH]ncc4c3)n2n1 [compound 2, 6-Chloro-N-(cyclopropylmethyl)-3-(1H-indazol-5-yl)imidazo[1,2-b]pyridazin-8-amine] | 100% | 80% | 90% | 84% | 78% | 90%
O=C(CN1CCOCC1)N[C@H]1CC[C@H](Nc2cc(Cl)nn3c(-c4ccc5[nH]ncc5c4)cnc23)CC1 [compound 26] | 88% | 84% | 100% | 64% | 95% | 55%
CN1CCC(CNc2cc(Cl)nn3c(-c4cc5nc(Nc6ccccc6)[nH]c5cc4F)cnc23)CC1 [compound 31, 6-Chloro-3-(6-fluoro-2-(phenylamino)-1H-benzo[d]imidazol-5-yl)-N-((1-methylpiperidin-4-yl)methyl)imidazo[1,2-b]pyridazin-8-amine] | 100% | 99% | 97% | 64% | 68% | 83%
